The subject of this assay is mice. Briefly: In vivo delivery of FLuc-circ-RNA lipid nanoparticles in mice (IVIS imaging). The following applies: for delivery efficiencies on change from mRNA to circular RNA: statement on Table 3, circular RNA LNP vs mRNA LNP; for IVIS: FLuc-circRNA LNP, IV. The method, then:
8.2 Investigation of the Delivery Efficacy of Nucleic Acid Lipid Nanoparticles for FLuc-Circ-mRNA in Mice
Lipid nanoparticles loaded with nucleic acid drugs were prepared according to step 2, replacing FLuc-mRNA with FLuc-circ-RNA (Shanghai Zhiwei Technology Development Co., Ltd.). After formulation, the nanoparticles were administered via intramuscular injection (into the quadriceps femoris muscle of mice), intravenous injection (into the tail vein of mice), intraperitoneal injection, or subcutaneous injection (subcutaneously on the back). Approximately 75 μL was injected per mouse, with a total of 3 mice per group. In vivo imaging (PerkinElmer, IVIS Lumina III) was performed after a certain period of time. Ten to fifteen minutes before imaging, 200 μL of a 15 mg/mL D-Luciferin working solution was injected intraperitoneally, followed by imaging analysis using the in vivo imaging system.

This is an account of results in patent US20250312288A1, “LIPIDS AND LIPID NANOPARTICLE FORMULATIONS” (LONGUIDE BIOPHARMA CORPORATION, priority 2024, published 2025).

For `CCCCCCC(CCCCCC)C(=O)NCCOC(=O)C(O)CN(CCO)CCCN(CC(O)C(=O)OCCNC(=O)C(CCCCCC)CCCCCC)CC(O)C(=O)OCCNC(=O)C(CCCCCC)CCCCCC` (stereo not shown) [Compound L0711], the “delivery efficiencies on change from mRNA to circular RNA” value (“delivery efficiencies on change” below) is reported as “further increased the delivery efficiencies”.
As for `CCCCCCOC(C)OCCCCCCOC(=O)C(O)CN(CCO)CCCN(CC(O)C(=O)OCCCCCCOC(C)OCCCCCC)CC(O)C(=O)OCCCCCCOC(C)OCCCCCC` (stereo not shown) [Compound L0692], the “delivery efficiencies on change” value is “further increased the delivery efficiencies”. Further, where the note is “organ liver”, the IVIS stood at 3.34E+06. The compound further returned an IVIS (organ lung) of 8.55E+04. This compound displayed an IVIS (organ spleen) of 2.64E+06.
On the same counts, the results for `CCCCCCC(CCCCCC)C(=O)OCCCCCCNC(=O)C(O)CN(CCO)CCCN(CC(O)C(=O)NCCCCCCOC(=O)C(CCCCCC)CCCCCC)CC(O)C(=O)NCCCCCCOC(=O)C(CCCCCC)CCCCCC` (stereo not shown) [Compound L0710] are “further increased the delivery efficiencies”, 3.07E+08, 4.78E+06 and 9.97E+07.
Regarding `CCCCCCCCC(CCCCCC)C(=O)NCCOC(=O)C(O)CN(CCO)CCCN(CC(O)C(=O)OCCNC(=O)C(CCCCCC)CCCCCCCC)CC(O)C(=O)OCCNC(=O)C(CCCCCC)CCCCCCCC` (stereo not shown) [Compound L0714], the “delivery efficiencies on change” value was “further increased the delivery efficiencies”.
